Assay results published in US8889375B2, “Hypoglycemic effect enhancer” (Biofermin Pharmaceutical Co., Ltd., priority 2009, dated 2014).

Assays:
GK rats = conditions: 9-week dietary administration, 0.005%: 4.1 mg/kg·day; cited from earlier work
KK-A^y mice [1] = assay: Fasting blood glucose level after 2-week feeding of the test diet (Example 2); assay type: in vivo, mouse; conditions: 2-week feeding of test diet (10% BBG9-1 dried cells and/or 0.0003% voglibose in CE-2), fasted overnight, FIG. 1
From the text: (§1) As the voglibose, BASEN (registered trade name) tablets 0.2 (made by Takeda Pharmaceutical Company Ltd.) were crushed and used. Female KK-A^y mice (strain name KK-A^y/TaJcl) at 8 weeks old were purchased (from CLEA Japan, Inc.) and preliminarily reared in separate cages for 2 weeks. A KK-A^y mouse is a diabetic model mouse. In the preliminary rearing, free access to a commercial powder diet (trade name: CE-2, made by CLEA Japan, Inc.) and tap water was provided. On the first day of the experiment, the oral glucose tolerance test (OGTT) was conducted. That is, to the mice kept fasted from the previous day, a glucose solution ((2 g in 5 mL)/kg) was orally administered. […] Accu-Check Aviva, made by Roche Diagnostics). The area under the blood concentration-time curve (AUC) was calculated, and based on the AUC, the mice were divided into the following 4 groups […] mice/group). The grouped mice were given free access to the test diet. Group A: a group fed with CE-2 containing 10% dextrin. […] Group C: a group fed with CE-2 containing 10% dextrin and 0.0003% voglibose. […] Each group was fed with the test diet for 2 weeks as above, fasted overnight, and then measured for fasting glucose level with use of Accu-Check Aviva. […] The significant difference of each group from Group A was evaluated using Durmett's test, and the significant difference between 2 groups was evaluated using t-test.

KK-A^y mice [2] = assay: Oral glucose tolerance test (OGTT) after 6-week feeding of the test diet (Example 2); assay type: in vivo, mouse
From the text: as §1

For OCC(CO)N[C@H]1C[C@](O)(CO)[C@@H](O)[C@H](O)[C@H]1O [voglibose, 1L(1S)-(1(OH),2,4,5/1,3)-5-[[2-hydroxy-1-(hydroxymethyl)-ethyl]amino]-1-C-(hydroxymethyl)-1,2,3,4-cyclohexane tetrol], the glucose tolerance (GK rats) is listed as “improved the glucose tolerance”, the “fasting blood glucose level” value (KK-A^y mice [1]) is listed as “neither BBG9-1 alone nor voglibose alone decreased the fasting blood glucose level” and the glucose tolerance (KK-A^y mice [2]; 6-week dietary administration, voglibose 0.0003%: 0.6 mg/kg·day) is listed as “did not improve the glucose tolerance”. The “blood glucose level in the OGTT after glucose loading” value (KK-A^y mice [2]; 6-week feeding (10% BBG9-1 dried cells and/or 0.0003% voglibose in CE-2), glucose 2 g/kg oral, FIG. 2) was “neither BBG9-1 alone nor voglibose alone inhibited the increase in the blood glucose level”.
